{"source": "patent US9988390B2", "about": "“Pyrimidone derivatives and their use in the treatment, amelioration or prevention of a viral disease” (F. Hoffmann-La Roche AG, priority 2015, dated 2018)", "note": "Counter-ions that a name gives are not always drawn.", "data": [{"system": "influenza A virus (A/WSN/33 NanoLuc reporter virus) in A549 cells", "experiment": "microbe, parasite or virus in culture", "format": "cell-based", "details": "A549, 24 h, read-out: IC50 values of viral replication inhibition in a cell-based Luciferase Reporter Assay (LRA)", "units": {"IC50": "nM"}, "values": [{"smiles": "COc1nc(=O)c(O)c2n1[C@@H](C1c3ccccc3CCc3ccccc31)CN(C)C2=O", "note": "[Example 1a-9, (4S)-4-(10,11-Dihydro-5H-dibenzo[a,d][7]annulen-5-yl)-9-hydroxy-6-methoxy-2-methyl-3,4-dihydro-2H-pyrazino[1,2-c]pyrimidine-1,8-dione]", "IC50": 6}, {"smiles": "CC(C)N1C[C@H](C(c2ccccc2)c2ccccc2)n2c(-c3ccccc3)nc(=O)c(O)c2C1=O", "note": "[Ia-42, (4S)-4-benzhydryl-9-hydroxy-2-isopropyl-6-phenyl-3,4-dihydropyrazino[1,2-c]pyrimidine-1,8-dione]", "IC50": 126}, {"smiles": "CC(C)N1C[C@H](C(c2ccccc2)c2ccccc2)n2cnc(=O)c(O)c2C1=O", "note": "[Ia-27, (4S)-4-Benzhydryl-9-hydroxy-2-isopropyl-3,4-dihydropyrazino[1,2-c]pyrimidine-1,8-dione]", "IC50": 232}, {"smiles": "CCOc1nc(=O)c(O)c2n1[C@@H](C(c1ccccc1)c1ccccc1)CN(C(C)C)C2=O", "note": "[Example 1a-7, (4S)-4-Benzhydryl-6-ethoxy-9-hydroxy-2-isopropyl-3,4-dihydropyrazino[1,2-c]-pyrimidine-1,8-dione]", "IC50": 69}, {"smiles": "COCCOc1nc(=O)c(O)c2n1[C@@H](C(c1ccccc1)c1ccccc1)CN(C)C2=O", "note": "[Ia-73, (4S)-4-Benzhydryl-9-hydroxy-6-(2-methoxyethoxy)-2-methyl-3,4-dihydropyrazino[1,2-c]pyrimidine-1,8-dione]", "IC50": 119}, {"smiles": "COc1nc(=O)c(O)c2n1[C@@H](C1c3ccccc3CCc3ccccc31)CN(C(C)C)C2=O", "note": "[Example 1a-8, (4S)-4-(10,11-Dihydro-5H-dibenzo[a,d][7]annulen-5-yl)-9-hydroxy-6-methoxy-2-(propan-2-yl)-3,4-dihydro-2H-pyrazino[1,2-c]pyrimidine-1,8-dione]", "IC50": 6}, {"smiles": "CC(C)N1C[C@H](C(c2ccccc2)c2ccccc2)n2c(c(O)c(=O)n(C)c2=O)C1=O", "note": "[Example 1b-1, (4S)-4-Benzhydryl-9-hydroxy-2-isopropyl-7-methyl-3,4-dihydropyrazino[1,2-c]pyrimidine-1,6,8-trione]", "IC50": 1660}, {"smiles": "CC[S+]([O-])c1nc(=O)c(O)c2n1[C@@H](C(c1ccccc1)c1ccccc1)CN(C(C)C)C2=O", "note": "(stereo partly drawn) [Ia-32, (4S)-4-Benzhydryl-6-ethylsulfinyl-9-hydroxy-2-isopropyl-3,4-dihydropyrazino[1,2-c]pyrimidine-1,8-dione]", "IC50": 117}, {"smiles": "CCCCOc1nc(=O)c(O)c2n1[C@@H](C(c1ccccc1)c1ccccc1)CN(C(C)C)C2=O", "note": "[Example 1a-15, (4S)-4-Benzhydryl-6-butoxy-9-hydroxy-2-isopropyl-3,4-dihydropyrazino[1,2-c]pyrimidine-1,8-dione]", "IC50": 15300}, {"smiles": "Cc1nc(=O)c(O)c2n1[C@@H](C(c1ccccc1)c1ccccc1)CN(C(C)C)C2=O", "note": "[Ia-40, (4S)-4-Benzhydryl-9-hydroxy-2-isopropyl-6-methyl-3,4-dihydropyrazino[1,2-c]pyrimidine-1,8-dione]", "IC50": 119}, {"smiles": "COC(=O)Nc1nc(=O)c(O)c2n1[C@@H](C(c1ccccc1)c1ccccc1)CN(C(C)C)C2=O", "note": "[Ia-56, Methyl N-[(4S)-4-benzhydryl-9-hydroxy-2-isopropyl-1,8-dioxo-3,4-dihydropyrazino[1,2-c]pyrimidin-6-yl]carbamate]", "IC50": 200}, {"smiles": "COc1nc(=O)c(O)c2n1[C@@H](C(c1ccccc1)c1ccccc1)CN([C@H](C)C(F)(F)F)C2=O", "note": "[Ia-66, (4S)-4-Benzhydryl-9-hydroxy-6-methoxy-2-[(1R)-2,2,2-trifluoro-1-methyl-ethyl]-3,4-dihydropyrazino[1,2-c]pyrimidine-1,8-dione]", "IC50": 26}, {"smiles": "CCSc1nc(=O)c(O)c2n1[C@@H](C(c1ccccc1)c1ccccc1)CN(C(C)C)C2=O", "note": "[Ia-24, (4S)-4-Benzhydryl-6-ethylsulfanyl-9-hydroxy-2-isopropyl-3,4-dihydropyrazino[1,2-c]pyrimidine-1,8-dione]", "IC50": 11900}, {"smiles": "COc1ccc(CNc2nc(=O)c(O)c3n2[C@@H](C(c2ccccc2)c2ccccc2)CN(C(C)C)C3=O)cc1", "note": "[Example 1a-2, (4S)-4-Benzhydryl-9-hydroxy-2-isopropyl-6-[(4-methoxyphenyl)methylamino]-3,4-dihydropyrazino[1,2-c]pyrimidine-1,8-dione formate]", "IC50": 2070}, {"smiles": "CC(=O)Nc1nc(=O)c(O)c2n1[C@@H](C(c1ccccc1)c1ccccc1)CN(C(C)C)C2=O", "note": "[Example 1a-16, N-[(4S)-4-Benzhydryl-9-hydroxy-2-isopropyl-1,8-dioxo-3,4-dihydropyrazino[1,2-c]pyrimidin-6-yl]acetamide]", "IC50": 23}, {"smiles": "CC(C)N1C[C@H](C(c2ccccc2)c2ccccc2)n2c([S+](C)[O-])nc(=O)c(O)c2C1=O", "note": "(stereo partly drawn) [Ia-26, (4S)-4-Benzhydryl-9-hydroxy-2-isopropyl-6-methylsulfinyl-3,4-dihydropyrazino[1,2-c]pyrimidine-1,8-dione]", "IC50": 127}, {"smiles": "CCc1nc(=O)c(O)c2n1[C@@H](C(c1ccccc1)c1ccccc1)CN(C(C)C)C2=O", "note": "[Ia-41, (4S)-4-Benzhydryl-6-ethyl-9-hydroxy-2-isopropyl-3,4-dihydropyrazino[1,2-c]pyrimidine-1,8-dione]", "IC50": 77}, {"smiles": "CSc1nc(=O)c(O)c2n1[C@@H](C1c3ccccc3CCc3ccccc31)CN(C(C)C)C2=O", "note": "[Ia-30, (4S)-4-(6,11-Dihydro-5H-dibenzo[2,1-b:1′,2′-e][7]annulen-11-yl)-9-hydroxy-2-isopropyl-6-methylsulfanyl-3,4-dihydropyrazino[1,2-c]pyrimidine-1,8-dione]", "IC50": 17}, {"smiles": "CC(C)N1C[C@H](C(c2ccccc2)c2ccccc2)n2c(OCc3ccccc3)nc(=O)c(O)c2C1=O", "note": "[Example 1a-13, (4S)-4-Benzhydryl-6-benzyloxy-9-hydroxy-2-isopropyl-3,4-dihydropyrazino[1,2-c]pyrimidine-1,8-dione]", "IC50": 8320}, {"smiles": "CC(C)N1C[C@H](C2c3ccccc3CCc3ccccc32)n2c(O)nc(=O)c(O)c2C1=O", "note": "[Example 1a-10, (4S)-4-(10,11-Dihydro-5H-dibenzo[a,d][7]annulen-5-yl)-6,9-dihydroxy-2-(propan-2-yl)-3,4-dihydro-2H-pyrazino[1,2-c]pyrimidine-1,8-dione]", "IC50": 98}, {"smiles": "CC(C)N1C[C@H](C2c3ccccc3CCc3ccccc32)n2c(S(C)(=O)=O)nc(=O)c(O)c2C1=O", "note": "[Ia-76, (4S)-4-(6,11-Dihydro-5H-dibenzo[2,1-b:1′,2′-e][7]annulen-11-yl)-9-hydroxy-2-isopropyl-6-methylsulfonyl-3,4-dihydropyrazino[1,2-c]pyrimidine-1,8-dione]", "IC50": 13}, {"smiles": "CC(C)N1CC(C2c3ccccc3CCc3ccccc32)n2c(CO)nc(=O)c(O)c2C1=O", "note": "(stereo not shown) [Ia-48, 4-(6,11-Dihydro-5H-dibenzo[2,1-b:1′,2′-e][7]annulen-11-yl)-9-hydroxy-6-(hydroxymethyl)-2-isopropyl-3,4-dihydropyrazino[1,2-c]pyrimidine-1,8-dione]", "IC50": 20}, {"smiles": "CC(C)N1C[C@H](C(c2ccccc2)c2ccccc2)n2c(NS(C)(=O)=O)nc(=O)c(O)c2C1=O", "note": "[Example 1a-17, N-[(4S)-4-benzhydryl-9-hydroxy-2-isopropyl-1,8-dioxo-3,4-dihydropyrazino[1,2-c]-pyrimidin-6-yl]methanesulfonamide]", "IC50": 1670}, {"smiles": "COc1nc(=O)c(O)c2n1C(C(c1ccccc1)c1ccccc1Br)CN(C)C2=O", "note": "(stereo not shown) [Ia-70, 4-[(2-Bromophenyl)-phenyl-methyl]-9-hydroxy-6-methoxy-2-methyl-3,4-dihydropyrazino[1,2-c]pyrimidine-1,8-dione]", "IC50": 27}, {"smiles": "CC(C)N1C[C@H](C(c2ccccc2)c2ccccc2)n2c(CO)nc(=O)c(O)c2C1=O", "note": "[Ia-74, (4S)-4-Benzhydryl-9-hydroxy-6-(hydroxymethyl)-2-isopropyl-3,4-dihydropyrazino[1,2-c]pyrimidine-1,8-dione]", "IC50": 125}, {"smiles": "CC(C)Nc1nc(=O)c(O)c2n1[C@@H](C1c3ccccc3CCc3ccccc31)CN(C(C)C)C2=O", "note": "[Ia-36, (4S)-4-(6,11-Dihydro-5H-dibenzo[2,1-b:1′,2′-e][7]annulen-11-yl)-9-hydroxy-2-isopropyl-6-(isopropylamino)-3,4-dihydropyrazino[1,2-c]pyrimidine-1,8-dione]", "IC50": 103}, {"smiles": "CC(C)N1C[C@H](C2c3ccccc3CCc3ccccc32)n2c(-n3cnnc3)nc(=O)c(O)c2C1=O", "note": "[Ia-46]", "IC50": 55}, {"smiles": "COc1nc(=O)c(O)c2n1[C@@H](C(c1ccccc1)c1ccccc1)CN(C(C)C)C2=O", "note": "[Example 1a-4, (4S)-4-Benzhydryl-9-hydroxy-2-isopropyl-6-methoxy-3,4-dihydropyrazino[1,2-c]pyrimidine-1,8-dione]", "IC50": 14}, {"smiles": "CC(C)N1C[C@H](C2c3ccccc3CCc3ccccc32)n2cnc(=O)c(O)c2C1=O", "note": "[Ia-29, (4S)-4-(6,11-Dihydro-5H-dibenzo[2,1-b:1′,2′-e][7]annulen-11-yl)-9-hydroxy-2-isopropyl-3,4-dihydropyrazino[1,2-c]pyrimidine-1,8-dione]", "IC50": 22}, {"smiles": "CC(C)N1C[C@H](C2c3ccccc3CCc3ccccc32)n2c(N)nc(=O)c(O)c2C1=O", "note": "[Example 1a-5, (4S)-6-Amino-4-(10,11-dihydro-5H-dibenzo[a,d][7]annulen-5-yl)-9-hydroxy-2-(propan-2-yl)-3,4-dihydro-2H-pyrazino[1,2-c]pyrimidine-1,8-dione]", "IC50": "> 50000"}, {"smiles": "CSc1nc(=O)c(O)c2n1[C@@H](C(c1ccccc1)c1ccccc1)CN(C(C)C)C2=O", "note": "[Ia-23, (4S)-4-Benzhydryl-9-hydroxy-2-isopropyl-6-methylsulfanyl-3,4-dihydropyrazino[1,2-c]pyrimidine-1,8-dione]", "IC50": 36}]}, {"system": "influenza A virus (A/WSN/33 NanoLuc reporter virus) in A549 cells", "experiment": "microbe, parasite or virus in culture", "format": "cell-based", "details": "A549, isomers identified by X-ray analysis, read-out: IC50", "units": {"IC50": "nM"}, "values": [{"smiles": "COc1nc(=O)c(O)c2n1[C@H]([C@@H]1c3ccccc3CSc3ccccc31)CN(C(C)C)C2=O", "note": "(single isomer, unassigned) [Example 15]", "IC50": 34}, {"smiles": "COc1nc(=O)c(O)c2n1[C@H]([C@H]1c3ccccc3CSc3ccccc31)CN(C(C)C)C2=O", "note": "(single isomer, unassigned) [Example 17]", "IC50": 28}, {"smiles": "COc1nc(=O)c(O)c2n1[C@@H]([C@@H]1c3ccccc3CSc3ccccc31)CN(C(C)C)C2=O", "note": "(single isomer, unassigned) [Example 16]", "IC50": 4}]}]}
